These results are taken from paper PMC8268575 (International Journal of Molecular Sciences, 2021).

The test system of data set [1] is PRCP. The data set can be described thus: in vitro. As to conditions: cited from earlier work.
Data set [2] in a line: rat plasma. As to conditions: cited from earlier work.
Data set [3] in a line: human plasma. As to conditions: cited from earlier work.
A short description of data set [4]: mouse plasma. To be noted: cited from earlier work.
In data set [5] the test system is Angiotensin-converting enzyme 2 (ACE2, EC 3.4.17.23). To be noted: cited from earlier work.
Data set [6] can be described thus: human plasma of healthy volunteers. To be noted: cited from earlier work.
Data set [7] can be described thus: HAoEC, 10,000 cells per well, in assay medium; supernatant analysed. As to conditions: human, 37 °C, up to 24 h.
Data set [8] can be described thus: HUVEC, 10,000 cells per well, in assay medium; supernatant analysed. As to conditions: human, 37 °C, up to 24 h.
Data set [9] can be described thus: 24 h cellular supernatant of HUVEC (assay medium), in the absence of cells. To be noted: human, 37 °C, up to 1 h.
Data set [10] relates to Recombinant human PREP. The data set can be described thus: Recombinant human PREP at pH 7.4 (0.1 M potassium phosphate, 1 mM EDTA and 5 mM DTT). To be noted: up to 1 h.
The subject of data set [11] is HUVEC. The data set can be described thus: Substrate cleavage in HUVEC, supernatant analysed by MALDI-TOF/TOF. The class given is in vitro ADME, human. As to conditions: 100 µM substrate. The procedure:
(§1) The experiment was independently conducted 4 times. […] The supernatants were desalted and concentrated by use of C18 ZipTips (Merck-Millipore, Burlington, MA, USA) and eluted directly on the MALDI target in 70% acetonitrile/0.1% TFA. Subsequently, a MALDI matrix solution of 2.5 mg/mL α-cyano-4-hydroxycinnamic acid in 70% acetonitrile/0.1% TFA was applied on each spot, air-dried at room temperature, and the target was introduced into a 4800 plus MALDI TOF/TOF^TM Analyzer. Mass spectrometry (MS) spectra (mass range: 600–4000 Da) were acquired in positive reflector mode with a laser intensity of 5000. To confirm the identity of the most important peptides, MS/MS spectra were generated by use of collision induced dissociation with a laser intensity of 5500. Calibration was done during analysis using the 6-peptide mixture (AB Sciex, Framingham, MA, USA). Mass spectra were generated by use of the 4000 Series Explorer and analyzed by mMas. […] The ratio of the peak intensity of the cleaved substrate to the peak intensity of the intact substrate is an indication for the C-terminal cleavage of the substrates. To check for additional cleavage sites, a search for other product peaks was completed. Statistical analysis was performed using SPSS software version 27 (IBM). Two-way ANOVA analysis was conducted to examine the effect of the two independent variables (treatment duration and treatment option) on the ratio of the peak intensities.

In data set [12] the test system is HAoEC. The data set can be described thus: Substrate cleavage in HAoEC, supernatant analysed by MALDI-TOF/TOF. The format is in vitro ADME, human. The procedure: as §1
For data set [13], the target named is T1, recombinant human PREP (Homo sapiens, UniProt P48147).
T1 sequence (P48147 1-710): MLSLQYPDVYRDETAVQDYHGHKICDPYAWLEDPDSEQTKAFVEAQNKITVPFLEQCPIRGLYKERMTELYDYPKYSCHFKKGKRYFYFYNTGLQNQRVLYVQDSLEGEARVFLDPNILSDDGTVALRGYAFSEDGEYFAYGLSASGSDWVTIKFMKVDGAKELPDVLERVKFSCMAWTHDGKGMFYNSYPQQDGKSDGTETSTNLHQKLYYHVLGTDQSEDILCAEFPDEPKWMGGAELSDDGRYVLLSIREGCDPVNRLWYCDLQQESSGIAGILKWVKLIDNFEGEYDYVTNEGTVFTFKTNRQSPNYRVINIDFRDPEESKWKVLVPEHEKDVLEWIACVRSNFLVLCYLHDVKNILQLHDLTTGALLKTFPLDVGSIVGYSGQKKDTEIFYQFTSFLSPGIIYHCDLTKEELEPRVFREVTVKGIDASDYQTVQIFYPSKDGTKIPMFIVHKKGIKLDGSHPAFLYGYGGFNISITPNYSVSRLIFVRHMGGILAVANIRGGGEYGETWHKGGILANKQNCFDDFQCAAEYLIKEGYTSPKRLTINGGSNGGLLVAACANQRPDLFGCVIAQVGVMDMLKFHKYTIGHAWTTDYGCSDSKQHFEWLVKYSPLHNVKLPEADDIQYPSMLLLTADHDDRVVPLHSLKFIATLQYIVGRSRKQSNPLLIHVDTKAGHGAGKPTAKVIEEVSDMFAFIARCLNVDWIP
The data set can be described thus: Cleavage by recombinant PREP, MALDI-TOF/TOF. To be noted: pH 7.4 (0.1 M potassium phosphate, 1 mM EDTA, 5 mM DTT), 100 µM substrate, 0 s to 1 h. The protocol: Supplementary Material File S3. Cleavage by recombinant PREP
Recombinant human PREP, expressed in BL21 (DE3) cells as previously described, was […]
(Laboratory for Medicinal Chemistry, University of Antwerp) or vehicle control at pH 7.4 (0.1 M potassium phosphate, 1 mM EDTA and 5 mM DTT). 100 μM substrate ((pyr)-apelin-13, (pyr)-apelin-13(1-12), Ang II or α-MSH 1-13) or vehicle control (PBS) was added. The reaction was stopped by acidification (pH<3) with 0.1% TFA after different time periods (0 s, 30 s, 1 min, 5 min, 15 min, 30 min or 1 h) and samples were stored at -80 °C.
A search for product peaks of the different peptides was conducted.
1. Van Elzen, R.; Schoenmakers, E.; Brandt, I.; Van Der Veken, P.; Lambeir, A.M.
Ligand-induced conformational changes in prolyl oligopeptidase: A kinetic approach.

Data set [14] has as its target T2, secreted PRCP in HUVEC supernatant (Homo sapiens, UniProt P42785).
T2 construct: endogenous in cells; host or cells: HUVEC and HAoEC (cell lysate and culture supernatant)
T2 sequence (P42785 46-496): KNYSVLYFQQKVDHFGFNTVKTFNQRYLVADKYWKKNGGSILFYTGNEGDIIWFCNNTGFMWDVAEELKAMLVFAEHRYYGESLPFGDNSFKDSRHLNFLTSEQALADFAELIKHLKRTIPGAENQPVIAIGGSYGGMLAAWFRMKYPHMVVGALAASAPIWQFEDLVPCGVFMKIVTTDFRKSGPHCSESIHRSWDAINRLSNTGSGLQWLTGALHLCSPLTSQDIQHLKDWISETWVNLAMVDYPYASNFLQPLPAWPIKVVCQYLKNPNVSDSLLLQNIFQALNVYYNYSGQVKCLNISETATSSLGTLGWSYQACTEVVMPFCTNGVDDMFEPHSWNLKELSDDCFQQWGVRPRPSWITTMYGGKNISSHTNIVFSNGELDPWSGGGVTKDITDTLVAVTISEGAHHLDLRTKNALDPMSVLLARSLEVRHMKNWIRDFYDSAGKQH
The data set can be described thus: Incubation of (pyr)-apelin-13 with 24 h cellular supernatant of HUVEC. The class given is in vitro ADME. As to conditions: 100 µM substrate. The procedure: Supplementary Material File S4. Incubation of (pyr)-apelin-13 with cellular supernatant HUVEC were seeded at a density of 10 000 cells per well in 96-well plates in 100 µL full medium. After 24 h, medium was replaced by assay medium and the cells were incubated for another 24 h at 37 °C in 5% CO2. After 24 h, cell supernatants were harvested and incubated with vehicle control (1% DMSO) or 1 µM compound 8o for 15 min at 37 °C. Then, 100 μM (pyr)-apelin-13 or vehicle control (PBS) was added. The reaction was stopped by acidification (pH<3) with 0.1% TFA after 1 h and the samples were stored at -80 °C until further processing.
The experiment was independently conducted 4 times. To detect the cleavage of (pyr)-apelin-13 (m/z 1533.8), the samples were analysed by MALDI-TOF/TOF.
However, comparing this experiment with the initial experiment where (pyr)-apelin-13 was added to the cells for 24 h (Figure 1 of main manuscript), much less (pyr)-apelin-13 was […]
terminal (pyr)-apelin-13 cleavage seen in the initial experiment.
Figure S4.1: Incubation of 24 h cellular supernatant with (pyr)-apelin-13 during 1 h. (Pyr)- […]
(1 picture or pasted object on this page, not shown here)

For data set [15] the following is noted: plasma; cited from earlier work. The source says: Although (pyr)-apelin-13 has increased stability and a longer plasma half-life in comparison with the non-pyroglutamated isoforms, it still has a short half-life of only minutes. Angiotensin-converting enzyme 2 (ACE2, EC 3.4.17.23) was always considered to be the only enzyme responsible for the hydrolysis of the C-terminal Phe of (pyr)-apelin-13 [28, 29, 30], until we identified PRCP as an apelin-cleaving enzyme in 2016, during the search for new PRCP-substrates based on amino acid sequence. Although many efforts were made to elucidate the importance of this C-terminal P ...

“Also recorded” adds a separate entry of the source.

On to pERPRLSHKGPMPF, for which the cleaved bond result in data set [1] is given as “P12-Phe13”; in data set [2], “Leu5-Ser6, first_seen; also recorded: Ser6-His7”; in [3] it was “Leu5-Ser6, first_seen; also recorded: Ser6-His7”; in data set [4] it was “Leu5-Ser6, first_seen; also recorded: Ser6-His7”; in [5], “P12-Phe13”; in data set [7] it was “P12-Phe13, 8 h; also recorded: Ser6-His7, 8 h”. In addition, the cleaved bond result in data set [8] was “P12-Phe13, 24 h”; in data set [9] it was “P12-Phe13, 1 h”. Further, the fragment found entry in data set [6] is “(pyr)-apelin-13(1-6)”. The not cleaved entry in data set [8] is reported as “In HUVEC, this product could not be detected”; in [10], “Only the peaks corresponding with the intact peptides could be observed”.

In the case of `CSCC[C@H](NC(=O)[C@@H]1CCCN1C(=O)CNC(=O)[C@H](CCCCN)NC(=O)[C@H](Cc1cnc[nH]1)NC(=O)[C@H](CO)NC(=O)[C@H](CC(C)C)NC(=O)[C@H](CCCNC(=N)N)NC(=O)[C@@H]1CCCN1C(=O)[C@H](CCCNC(=N)N)NC(=O)[C@@H]1CCC(=O)N1)C(=O)N1CCC[C@H]1C(=O)N[C@@H](Cc1ccccc1)C(=O)O` [(pyr)-apelin-13], the “C-terminal cleavage of (pyr)-apelin-13 to (pyr)-apelin-13(1–12), ratio of peak intensities in the supernatant” value is on record as “significant after 24 h” in [11] (HUVEC 10,000 cells/well, assay medium (5% full medium in HBSS), 37 °C, 0/2/4/8/24 h, all treatment groups, MALDI-TOF/TOF, n = 4) and “significant after 24 h” in data set [12] (HAoEC 10,000 cells/well, 100 µM substrate, assay medium (5% full medium in HBSS), 37 °C, 0/2/4/8/24 h, all treatment groups, MALDI-TOF/TOF, n = 4). The “Enzyme dependence of cleavage of (pyr)-apelin-13 to (pyr)-apelin-13(1–12)” value in [11] (HUVEC pre-treated 15 min with 1 µM compound 8o (PRCP) and/or 1 µM DX600 (ACE2), 24 h, n = 4) is “PRCP-dependent”; in [12] (HAoEC pre-treated 15 min with 1 µM compound 8o (PRCP) and/or 1 µM DX600 (ACE2), 100 µM substrate, 24 h, n = 4), “PRCP- and ACE2-dependent”. Also, the “Cleavage of (pyr)-apelin-13 to (pyr)-apelin-13(1-6)” value in data set [11] (HUVEC, MALDI-TOF/TOF) was “could not be detected”; in data set [12] (HAoEC, all treatment groups, 100 µM substrate, MALDI-TOF/TOF, data not shown) it was “significant from 8 h onwards”. The “Involvement of PRCP and ACE2 in cleavage of (pyr)-apelin-13 to (pyr)-apelin-13(1-6)” value in data set [12] (HAoEC, 1 µM compound 8o and/or 1 µM DX600, data not shown) is reported as “none of the studied enzymes were involved”. For the same compound, in data set [12] (control, PRCP-inhibited and ACE2-inhibited HAoEC, 100 µM substrate, 37 °C, MALDI-TOF/TOF, n = 4), the “C-terminal cleavage of (pyr)-apelin-13 to (pyr)-apelin-13(1–12), earliest observable time” value is given as “already observable after 8 h”. In addition, the “Cleavage by recombinant human PREP” value in data set [13] is reported as “did not cleave; also recorded: could not observe”. For the same compound, the “C-terminal cleavage of (pyr)-apelin-13 in cell-free 24 h HUVEC supernatant” value in [14] (1 h, 37 °C, MALDI-TOF/TOF, 4 independent experiments) is “cleaved at its C-terminus after 1 h”. Further, the “Extent of PRCP-mediated cleavage in cell-free HUVEC supernatant compared with the cellular experiment” value in data set [14] (1 h versus 24 h with cells) is given as “to a much lesser extent”. Also, the half-life result in data set [15] was “only minutes”.
